According to the NIST ThermoML archive (doi:10.1021/je100875a):

Experiment: mn = molality of the nth substance listed, in mol/kg
Details: 101 kPa, Liquid

O=[N+]([O-])[O-].O=[N+]([O-])[O-].O=[N+]([O-])[O-].[Ce+3] [cerium nitrate] + O
mass density [kg/m3]
Details	m1 = 0.5112	m1 = 1.031	m1 = 1.555	m1 = 1.997	m1 = 3.131	m1 = 3.968	m1 = 4.462
293.15 K	1131.2	1252.8	1361.9	1446.2	1633.2	1746.4	1806
298.15 K	1129.3	1250.2	1358.8	1443.1	1629.1	1742.4	1801.8
308.15 K	1124.7	1244.4	1352	1435.7	1620.5	1733.1	1792.2

O=[N+]([O-])[O-].O=[N+]([O-])[O-].O=[N+]([O-])[O-].[La+3] [lanthanum(III) nitrate] + O
mass density [kg/m3]
Details	m1 = 0.4953	m1 = 0.9893	m1 = 1.48	m1 = 1.97	m1 = 2.93	m1 = 3.9	m1 = 4.385
293.15 K	1125.6	1240.6	1343.1	1436.9	1595.8	1729.3	1787.9
298.15 K	1123.8	1238.1	1340.1	1433.6	1591.8	1725.3	1783.8
308.15 K	1119.2	1231.6	1333.5	1426.3	1583.4	1716.3	1774.6

O=[N+]([O-])[O-].O=[N+]([O-])[O-].O=[N+]([O-])[O-].[Nd+3] [neodymium(III) nitrate] + O
mass density [kg/m3]
Details	m1 = 0.522	m1 = 1.021	m1 = 1.555	m1 = 2.093	m1 = 3.086	m1 = 4.124	m1 = 4.297
566.3 K	1136.1	1255.1	1369.8	1474.7	1642.1	1785.9	1807
571.3 K	1134.2	1252.5	1366.7	1471.1	1637.8	1781.1	1802.7
581.3 K	1129.6	1246.7	1359.9	1463.5	1628.8	1771.4	1792.8

O=[N+]([O-])[O-].O=[N+]([O-])[O-].O=[N+]([O-])[O-].[Y+3] [yttrium nitrate] + O
mass density [kg/m3]
Details	293.15 K	298.15 K	308.15 K
m1 = 0.2775	–	1057.4	–
m1 = 0.3213	–	1066.6	–
m1 = 0.3706	–	1076.9	–
m1 = 0.4172	–	1086.5	–
m1 = 0.4989	1105.5	1103.5	1099.2
m1 = 0.9965	1202.6	1200.2	1194.7
m1 = 1.497	1290.8	1287.8	1281.4
m1 = 1.982	1368.7	1365.4	1358.2
m1 = 2.947	1502.8	1498.9	1490.5
m1 = 3.945	1615.7	1611.4	1602.2
m1 = 4.957	1708.9	1704.3	1694.7
